Data: ChEMBL document CHEMBL3217726, “Asymmetric synthesis of potent chroman-based Rho kinase (ROCK-II) inhibitors” (Medchemcomm, 2011)

Legend:
[1] = target: Rho-associated protein kinase 2 (Rattus norvegicus, UniProt Q62868); test: Inhibition of ROCK2-mediated myosin light chain bis-phosphorylation in rat A7r5 cells after 1 hr by TO-PRO-3 iodide staining-based assay; type: cell-based
[2] = Inhibition of PKA (unknown origin) after 70 mins by luminescence assay; set-up: species or system Homo sapiens
[3] = target: Rho-associated protein kinase 2 (Homo sapiens, UniProt O75116); test: Inhibition of ROCK2 (unknown origin) after 4 hrs by HTRF assay
[4] = target: Serine/threonine-protein kinase MRCK alpha (Homo sapiens, UniProt Q5VT25); test: Inhibition of MRCK-alpha (unknown origin) using LCB-AKRRRLSSLRA-NH2 as substrate after 75 mins by luminescence assay
Homo sapiens [5] = species on record: Homo sapiens; test: Selectivity ratio of IC50 for MRCK-alpha (unknown origin) to IC50 for ROCK2 (unknown origin)
Homo sapiens [6] = species on record: Homo sapiens; test: Selectivity ratio of IC50 for PKA (unknown origin) to IC50 for ROCK2 (unknown origin)

Chain of Rho-associated protein kinase 2 (Rattus norvegicus, UniProt Q62868) (Q62868 whole entry): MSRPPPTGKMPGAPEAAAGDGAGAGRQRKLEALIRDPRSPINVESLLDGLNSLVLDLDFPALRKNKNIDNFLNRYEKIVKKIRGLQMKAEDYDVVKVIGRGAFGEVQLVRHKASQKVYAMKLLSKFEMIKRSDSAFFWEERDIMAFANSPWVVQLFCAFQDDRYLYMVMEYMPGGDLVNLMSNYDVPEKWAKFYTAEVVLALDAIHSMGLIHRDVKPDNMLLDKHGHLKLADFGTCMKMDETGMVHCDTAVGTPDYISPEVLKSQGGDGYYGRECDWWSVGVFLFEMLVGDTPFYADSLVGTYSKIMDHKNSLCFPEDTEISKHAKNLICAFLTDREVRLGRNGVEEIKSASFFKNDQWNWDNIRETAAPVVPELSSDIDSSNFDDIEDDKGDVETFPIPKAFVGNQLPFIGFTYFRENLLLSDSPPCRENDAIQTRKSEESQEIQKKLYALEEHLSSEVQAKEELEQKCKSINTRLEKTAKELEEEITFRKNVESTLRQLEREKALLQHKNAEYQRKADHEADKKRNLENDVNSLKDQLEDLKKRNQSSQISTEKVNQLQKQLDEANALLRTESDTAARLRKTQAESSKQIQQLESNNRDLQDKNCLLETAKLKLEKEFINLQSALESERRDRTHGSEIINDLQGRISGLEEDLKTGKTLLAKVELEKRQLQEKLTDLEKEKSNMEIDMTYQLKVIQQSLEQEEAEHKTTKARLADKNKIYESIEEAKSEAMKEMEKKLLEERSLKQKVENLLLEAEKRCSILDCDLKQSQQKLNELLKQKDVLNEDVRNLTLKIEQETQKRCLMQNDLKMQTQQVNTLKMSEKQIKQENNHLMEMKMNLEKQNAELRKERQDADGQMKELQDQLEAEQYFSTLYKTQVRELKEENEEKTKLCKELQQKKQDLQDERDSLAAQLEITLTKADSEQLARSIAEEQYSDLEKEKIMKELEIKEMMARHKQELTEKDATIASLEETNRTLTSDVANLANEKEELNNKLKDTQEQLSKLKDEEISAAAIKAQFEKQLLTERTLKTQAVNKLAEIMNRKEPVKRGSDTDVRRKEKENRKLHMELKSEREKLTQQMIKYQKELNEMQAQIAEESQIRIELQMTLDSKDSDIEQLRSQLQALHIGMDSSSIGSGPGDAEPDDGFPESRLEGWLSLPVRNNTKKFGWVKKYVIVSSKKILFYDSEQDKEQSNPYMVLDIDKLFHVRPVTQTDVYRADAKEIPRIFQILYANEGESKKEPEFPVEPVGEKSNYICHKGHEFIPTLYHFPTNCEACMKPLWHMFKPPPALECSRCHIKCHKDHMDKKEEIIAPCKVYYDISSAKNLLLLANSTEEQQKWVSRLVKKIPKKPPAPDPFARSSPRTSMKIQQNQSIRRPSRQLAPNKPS
Chain of Rho-associated protein kinase 2 (Homo sapiens, UniProt O75116) (O75116 whole entry): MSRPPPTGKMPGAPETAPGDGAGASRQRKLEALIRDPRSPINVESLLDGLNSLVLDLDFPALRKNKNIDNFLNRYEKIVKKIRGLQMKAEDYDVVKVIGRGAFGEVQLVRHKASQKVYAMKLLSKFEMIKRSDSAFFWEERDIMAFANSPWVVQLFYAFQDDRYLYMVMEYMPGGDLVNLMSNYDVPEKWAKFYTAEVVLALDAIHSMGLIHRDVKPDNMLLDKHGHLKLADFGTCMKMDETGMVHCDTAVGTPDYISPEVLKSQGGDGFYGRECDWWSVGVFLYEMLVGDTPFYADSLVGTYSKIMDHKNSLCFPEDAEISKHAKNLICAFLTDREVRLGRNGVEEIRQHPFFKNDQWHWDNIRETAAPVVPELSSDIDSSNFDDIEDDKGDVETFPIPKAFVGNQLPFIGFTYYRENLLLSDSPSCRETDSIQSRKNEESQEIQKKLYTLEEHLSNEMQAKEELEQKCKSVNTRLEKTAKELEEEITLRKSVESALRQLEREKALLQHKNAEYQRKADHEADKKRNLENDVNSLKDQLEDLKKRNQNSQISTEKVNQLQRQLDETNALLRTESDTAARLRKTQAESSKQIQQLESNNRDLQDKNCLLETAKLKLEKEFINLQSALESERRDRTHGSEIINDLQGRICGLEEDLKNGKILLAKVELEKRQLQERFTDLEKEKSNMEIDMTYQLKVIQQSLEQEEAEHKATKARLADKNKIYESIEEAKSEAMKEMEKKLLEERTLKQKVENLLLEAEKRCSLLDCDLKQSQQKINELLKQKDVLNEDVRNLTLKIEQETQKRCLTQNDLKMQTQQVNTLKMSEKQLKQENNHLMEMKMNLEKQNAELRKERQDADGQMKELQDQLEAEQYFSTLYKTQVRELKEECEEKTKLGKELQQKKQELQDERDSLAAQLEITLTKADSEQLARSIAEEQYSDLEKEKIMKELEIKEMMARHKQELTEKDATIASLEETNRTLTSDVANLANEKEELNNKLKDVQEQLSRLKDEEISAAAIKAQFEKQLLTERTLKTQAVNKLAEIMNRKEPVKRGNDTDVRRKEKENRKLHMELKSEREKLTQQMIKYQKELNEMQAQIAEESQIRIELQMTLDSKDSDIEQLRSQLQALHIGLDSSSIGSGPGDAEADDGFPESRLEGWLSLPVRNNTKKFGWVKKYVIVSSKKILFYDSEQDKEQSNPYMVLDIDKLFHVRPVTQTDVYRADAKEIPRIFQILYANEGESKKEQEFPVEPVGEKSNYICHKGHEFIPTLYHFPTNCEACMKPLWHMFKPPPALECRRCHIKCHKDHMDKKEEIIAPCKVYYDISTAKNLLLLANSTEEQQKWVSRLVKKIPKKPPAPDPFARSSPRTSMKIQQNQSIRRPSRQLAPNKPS
Chain of Serine/threonine-protein kinase MRCK alpha (Q5VT25 whole entry): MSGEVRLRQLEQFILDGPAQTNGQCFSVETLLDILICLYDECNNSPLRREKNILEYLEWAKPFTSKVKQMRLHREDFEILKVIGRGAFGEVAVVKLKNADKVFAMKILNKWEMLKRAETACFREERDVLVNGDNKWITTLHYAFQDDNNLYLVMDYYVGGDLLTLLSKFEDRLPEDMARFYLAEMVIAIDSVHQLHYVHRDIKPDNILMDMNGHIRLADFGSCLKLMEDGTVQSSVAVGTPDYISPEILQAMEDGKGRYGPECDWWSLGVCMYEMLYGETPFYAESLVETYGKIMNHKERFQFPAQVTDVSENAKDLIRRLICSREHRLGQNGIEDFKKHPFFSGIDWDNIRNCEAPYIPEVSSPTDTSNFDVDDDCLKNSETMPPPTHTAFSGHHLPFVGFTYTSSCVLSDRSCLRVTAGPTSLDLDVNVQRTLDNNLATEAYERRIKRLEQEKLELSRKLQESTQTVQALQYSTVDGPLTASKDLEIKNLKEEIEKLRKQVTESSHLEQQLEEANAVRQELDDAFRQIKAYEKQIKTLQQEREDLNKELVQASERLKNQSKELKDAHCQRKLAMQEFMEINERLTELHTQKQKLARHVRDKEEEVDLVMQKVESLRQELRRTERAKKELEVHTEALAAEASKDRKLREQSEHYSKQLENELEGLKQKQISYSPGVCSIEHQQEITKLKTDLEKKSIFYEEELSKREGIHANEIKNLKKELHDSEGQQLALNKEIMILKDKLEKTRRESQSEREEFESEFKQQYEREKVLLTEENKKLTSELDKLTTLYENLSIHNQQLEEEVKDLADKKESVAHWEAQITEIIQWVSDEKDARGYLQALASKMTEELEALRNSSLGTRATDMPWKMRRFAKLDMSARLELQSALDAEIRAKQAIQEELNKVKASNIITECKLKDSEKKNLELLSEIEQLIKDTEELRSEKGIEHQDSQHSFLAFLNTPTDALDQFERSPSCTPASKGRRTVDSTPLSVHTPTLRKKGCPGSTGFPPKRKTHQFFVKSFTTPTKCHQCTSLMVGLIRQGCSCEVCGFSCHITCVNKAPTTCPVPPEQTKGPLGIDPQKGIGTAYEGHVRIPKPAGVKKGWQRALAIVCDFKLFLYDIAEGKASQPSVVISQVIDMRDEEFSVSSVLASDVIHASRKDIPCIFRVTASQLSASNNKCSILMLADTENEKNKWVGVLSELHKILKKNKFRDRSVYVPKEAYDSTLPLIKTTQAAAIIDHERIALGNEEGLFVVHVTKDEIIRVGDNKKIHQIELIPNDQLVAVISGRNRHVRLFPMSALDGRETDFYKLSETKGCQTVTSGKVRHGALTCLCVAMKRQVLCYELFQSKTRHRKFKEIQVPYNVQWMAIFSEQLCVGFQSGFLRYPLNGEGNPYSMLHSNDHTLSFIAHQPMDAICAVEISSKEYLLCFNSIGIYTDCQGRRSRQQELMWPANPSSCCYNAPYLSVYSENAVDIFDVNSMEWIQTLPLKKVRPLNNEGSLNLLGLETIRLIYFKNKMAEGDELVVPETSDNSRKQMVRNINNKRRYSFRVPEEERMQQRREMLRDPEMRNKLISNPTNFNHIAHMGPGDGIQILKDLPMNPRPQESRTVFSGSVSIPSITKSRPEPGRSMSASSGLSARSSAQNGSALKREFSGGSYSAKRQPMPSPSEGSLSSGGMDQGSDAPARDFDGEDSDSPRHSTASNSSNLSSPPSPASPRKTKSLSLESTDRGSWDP

IC50 [1] [nM] | IC50 [2] [µM] | IC50 [3] [nM] | IC50 [4] [nM] | Ratio IC50 (Homo sapiens [5]) | Ratio IC50 (Homo sapiens [6]) | SMILES
< 4 | 1.74 |  |  |  |  | COc1ccc2c(c1)C[C@H](C(=O)Nc1ccc(-c3cn[nH]c3)cc1OCCN(C)C)CO2
43 | > 20 |  |  |  |  | COc1ccc2c(c1)C[C@@H](C(=O)Nc1ccc(-c3cn[nH]c3)cc1OCCN(C)C)CO2
32 | > 20 | 14 | > 20000 |  |  | COc1ccc2c(c1)C[C@@H](C(=O)Nc1ccc(-c3cn[nH]c3)cc1O[C@@H]1CCN(C)C1)CO2
< 4 | 7.38 | < 1 | 294 |  |  | COc1ccc2c(c1)C[C@H](C(=O)Nc1ccc(-c3cn[nH]c3)cc1O[C@H]1CCN(C)C1)CO2
411 | > 20 | 30 | > 20000 |  |  | COc1ccc2c(c1)C[C@@H](C(=O)Nc1ccc(-c3cn[nH]c3)cc1OCCN1CCCC1)CO2
900 | > 20 | 34 |  |  |  | COc1ccc2c(c1)C[C@@H](C(=O)Nc1ccc(-c3cn[nH]c3)cc1O[C@H]1CCN(C)C1)CO2
< 4 | 0.652 | < 1 | 74 |  |  | COc1ccc2c(c1)C[C@H](C(=O)Nc1ccc(-c3cn[nH]c3)cc1OCCCO)CO2
< 4 | 3.46 | < 1 | 261 |  |  | COc1ccc2c(c1)C[C@H](C(=O)Nc1ccc(-c3cn[nH]c3)cc1O[C@@H]1CCN(C)C1)CO2
< 4 | 9.6 | < 1 | 1270 | > 1200 | > 9500 | COc1ccc2c(c1)C[C@H](C(=O)Nc1ccc(-c3cn[nH]c3)cc1OCCN1CCCC1)CO2
519 | > 20 | 35 |  |  |  | COc1ccc2c(c1)C[C@@H](C(=O)Nc1ccc(-c3cn[nH]c3)cc1OCCCO)CO2
